Data as given in article PMC8876959, “Comparative Evaluation of Radiochemical and Biological Properties of ^131I- and [^99mTc]Tc(CO)3-Labeled RGD Analogues Planned to Interact with the αvβ3 Integrin Expressed in Glioblastoma” (Pharmaceuticals, 2022).

Tests used:
[1] = tested on: normal rat brain homogenates (control); assay: Binding and internalization in brain homogenate of normal rats; details: 37 °C, n = 7
Experimental: An aliquot containing 2 × 10^6 C6 cells in supplemented DMEM-F12 culture medium (450 µL) was added to a vial and incubated with 10 nmol of the radiolabeled peptide at 37 °C with gentle agitation. The studies were evaluated at 1, 4 and 24 h (n = 7 for each time point). Then, the vials were centrifuged (604× g for 5 min). The radioactivities of the pellet and supernatant were separately evaluated using an automatic Wizard 3 2480 gamma counter (Perkin Elmer; Norwalk, CT, USA). The percentage of the bound fraction was calculated by Equation (1). (1) % bound fraction=Pellet radioactivity (cpm)/Pellet radioactivity (cpm)+supernatant radioactivity (cpm)×100
In the sequence, a second radioactivity determination was performed. For that, pellets were resuspended using 0.5 mL of acid buffer (0.2 M acetic acid in 0.5 M NaCl solution; pH 2.8) and maintained at room temperature for 5 min to remove the radiolabeled molecule attached to the cell membrane surface. Then, the vials were centrifuged (1677× g for 5 min). The pellet and supernatant were separated and their radioactivities were measured using the above-mentioned automatic gamma counter. The percentage of the internalized fraction of radiopeptides was estimated based on the ratio between the activity contained in the precipitate and the supernatant and calculated by Equation (2):(2) % internalized fraction=Pellet radioactivity (cpm)/Pellet radioactivity (cpm)+supernatant radioactivity (cpm)×100
Brain homogenates were prepared at the concentration of ~10 mg of wet tissue in 1000 µL of PBS (pH 7.4). Normal brain tissue (control) and tumor-bearing brain tissue (model) were used. A 25 µL aliquot (1.2 MBq/nmol) of each radiopeptide was added to 200 µL of freshly prepared homogenates (n = 7). The homogenates containing the radiolabeled peptides were incubated at 37 °C for 1, 4 and 24 h. Binding and internalization fractions were determined as described in Section 3.11.

[2] = Ex vivo biodistribution in normal (control) rats; set-up: species or system rat; details: gamma counter, mean ± SEM, n = 3
Experimental: Adult male Sprague Dawley rats (280–320 g) were maintained under controlled environmental conditions (12 h light-dark cycle; constant temperature 21 ± 2 °C), with free access to water and food. Tumorigenic glioblastoma cells were implanted in the right frontal cortex, following specific coordinates (referred to bregma): anteroposterior = 1.0 mm; lateral = 3.0 mm; depth = 5.0 mm. An aliquot of culture medium (10 µL) containing 1 × 10^6 C6 cells in suspension was injected slowly (1 µL/min) using a Hamilton syringe positioned on a stereotaxic surgery frame. In the control group, only the culture medium, without cells, was injected. An interval of 20 days after cell inoculation was allowed for tumor development.
The ex vivo biodistribution of each radiolabeled peptide (4 MBq; 0.2 mL) was evaluated at 15, 60, and 240 min after IV injection in control and tumor-bearing animals (n = 3 per group, per time point). The molar activities in this study were 0.68 and 16.2 MBq/nmol for the iodine and tricarbonyl-labeled peptides, respectively. Animals were deeply anesthetized and sacrificed at the corresponding biodistribution time point. Brain, spleen, heart, stomach, liver, lungs, kidneys, and blood were collected and weighed. Then, their radioactivities were determined using the above-mentioned automatic gamma counter. The radioactivity of each organ/tissue was evaluated as the percentage of injected dose per gram of organ/tissue (% ID/g), using the same injected dose activity as a standard.

[3] = Partition coefficient (n-octanol/water); format: physicochemical; details: shake-flask, n-octanol/water (1:1), vortexed, 1 h at rest, centrifuged; gamma counter; mean ± SD, n = 6 (method: n = 5)
Experimental: A fraction (100 μL) of the radiopeptide was added to a water/n-octanol (1:1) mixture. The mixture was vigorously vortexed and kept at rest for 1 h. Then, it was centrifuged at 1677× g for 5 min. Equal samples from both aqueous/organic phases were collected and their radioactivities were measured in an automatic Wizard 3 2480 gamma counter (Perkin Elmer; Norwalk, CT, USA) to determine log P values (n = 5).

[4] = RP-HPLC retention time (used as an indication of hydrophobicity); format: physicochemical; details: C18 column, 0.1% TFA:H2O (A), 60% acetonitrile/0.1% TFA:H2O (B), 5-95% B in 30 min, 1.0 mL/min; radioactivity detector (slight delay versus UV signal)
Experimental: RP-HPLC analyzes were performed on a Proeminence LC-20A system (Shimadzu; Kyoto, Japan). The column selected was Vydac C18 150 × 4.6 mm, with a particle size of 5 μm, a pore size of 300 Å. Chromatograms were performed at λ = 220 nm. Peaks were eluted using solvent systems composed of 0.1% TFA:H2O as solvent A and 60% acetonitrile/0.1% TFA:H2O as solvent B, on a gradient of 5–95% of solvent B at a flow rate of 1.0 mL·min^−1 for 30 min (n = 3).
RP-HPLC analyzes were performed on a 1290 Infinity II UHPLC system (Agilent Technologies; Saint Clair, CA, USA) fitted with a radioactivity detector (Eckert & Ziegler; Berlin, Germany) and Open Lab ECM data system (Agilent Technologies; Saint Clair, CA, USA) to confirm the yield and purity of both radiolabeled peptides. Analyzes were performed using a Phenomenex C18 column (150 × […]; 5 µm particle size; 300 Å pore size), detection at λ = 220 nm, using 0.1% TFA:H2O as solvent A and 60% acetonitrile/0.1% TFA:H2O as solvent B. A gradient of 5% to 95% of solvent B in 30 min was used at a flow rate of 1.0 mL·min^−1.

[5] = normal rat brain homogenate, 24 h

For [^99mTc]Tc(CO)3-GRGDHV, the Bound fraction ([1]; normal rat brain homogenate (~10 mg/1000 µL PBS pH 7.4), 1 h) was ~ 50%, the Internalized fraction ([1]; normal rat brain homogenate, 1 h) was ~ 63% and the Bound fraction [1, 5] was ~ 65%. For the same substance, the Internalized fraction [1, 5] was ~ 87%, the “Ex vivo biodistribution, Blood” value ([2]; 15 min after IV injection) was 11.30 ± 0.84 %ID/g and the “Ex vivo biodistribution, Blood” value ([2]; 60 min after IV injection) was 9.78 ± 0.52 %ID/g. For the same substance, the “Ex vivo biodistribution, Blood” value ([2]; 240 min after IV injection) was 11.12 ± 1.27 %ID/g, the “Ex vivo biodistribution, Brain” value ([2]; 15 min after IV injection) was 0.32 ± 0.01 %ID/g and the “Ex vivo biodistribution, Brain” value ([2]; 60 min after IV injection) was 0.28 ± 0.03 %ID/g. For the same substance, the “Ex vivo biodistribution, Brain” value ([2]; 240 min after IV injection) was 0.60 ± 0.04 %ID/g, the “Ex vivo biodistribution, Heart” value ([2]; 15 min after IV injection) was 5.14 ± 0.12 %ID/g and the “Ex vivo biodistribution, Heart” value ([2]; 60 min after IV injection) was 4.41 ± 0.23 %ID/g. The “Ex vivo biodistribution, Heart” value ([2]; 240 min after IV injection) was 4.84 ± 0.37 %ID/g, the “Ex vivo biodistribution, Kidneys” value ([2]; 15 min after IV injection) was 62.73 ± 2.17 %ID/g and the “Ex vivo biodistribution, Kidneys” value ([2]; 60 min after IV injection) was 51.04 ± 1.49 %ID/g. The “Ex vivo biodistribution, Kidneys” value ([2]; 240 min after IV injection) was 40.17 ± 0.90 %ID/g, the “Ex vivo biodistribution, Liver” value ([2]; 15 min after IV injection) was 6.06 ± 0.79 %ID/g and the “Ex vivo biodistribution, Liver” value ([2]; 60 min after IV injection) was 9.55 ± 1.34 %ID/g. For the same substance, the “Ex vivo biodistribution, Liver” value ([2]; 240 min after IV injection) was 12.26 ± 1.34 %ID/g, the “Ex vivo biodistribution, Lungs” value ([2]; 15 min after IV injection) was 7.76 ± 0.75 %ID/g and the “Ex vivo biodistribution, Lungs” value ([2]; 60 min after IV injection) was 9.25 ± 1.65 %ID/g. The “Ex vivo biodistribution, Lungs” value ([2]; 240 min after IV injection) was 8.59 ± 0.64 %ID/g, the “Ex vivo biodistribution, Spleen” value ([2]; 15 min after IV injection) was 3.41 ± 0.41 %ID/g and the “Ex vivo biodistribution, Spleen” value ([2]; 60 min after IV injection) was 3.69 ± 0.60 %ID/g. The “Ex vivo biodistribution, Spleen” value ([2]; 240 min after IV injection) was 4.93 ± 0.45 %ID/g, the “Ex vivo biodistribution, Stomach” value ([2]; 15 min after IV injection) was 3.09 ± 0.77 %ID/g and the “Ex vivo biodistribution, Stomach” value ([2]; 60 min after IV injection) was 10.27 ± 0.59 %ID/g. The “Ex vivo biodistribution, Stomach” value ([2]; 240 min after IV injection) was 10.78 ± 3.11 %ID/g, the “Log P” value [3] was −1.13 ± 0.14 and the “RP-HPLC retention time (Rt), radiolabeled peptide” value [4] was 17.80 min.
